Test results: article PMC6604316 (Virology Journal, 2019)
Read-outs that look alike come from different tables or passages of the source.

Legend:
[1] = tested on: NA protein of LPAI H7N9 virus, 292 K; conditions: cited from earlier work
[2] = molecular target: NA of A/Texas/12/2007 (H3N2 119E) (Influenza A virus (A/Texas/12/2007(H3N2)), UniProt D1FVK3); experiment: biochemical; type: biochemical

CC(=O)N[C@H]1[C@H]([C@H](O)[C@H](O)CO)OC(C(=O)O)=C[C@@H]1N=C(N)N [Zanamivir, zanamivir]
fold increase in the IC50 [1]: 67 fold | IC50 [2]: 1.71 ± 0.63 nM

oseltamivir carboxylate
fold increase in the IC50 [1]: more than 1000 fold | IC50 ([2]; read-out: Mean IC50 (nM) ± SD): 0.12 ± 0.01 nM
